Measured values: US4906659A, “Antibiotic tan-749, its derivatives, production and use thereof” (Takeda Chemical Industries, Ltd., priority 1985, dated 1990)
Values after ≈ are worked out from the molar mass of the structure shown. Structures can show the parent of a compound that is named as a salt.

Legend:
[1] = tested on: Acinetobacter calcoaceticus IFO 13006; experiment: Antibacterial spectrum, minimal inhibitory concentration (Table D); format: cell-based; conditions: IFO13006, dihydrochloride, Bacto-Antibiotic Medium 3 agar, inoculum a loopful of approx. 10^6 CFU/ml
Method: (§1) Tables D and E show the antibacterial spectra of TAN-749A, B, C and D (dihydrochlorides) against various microorganisms.
(§2) Bacto-Antibiotic Medium 3
(§3) Distilled water 1,000 ml
(§4) Inoculum size a loopful of approx.

[2] = tested on: Alcaligenes faecalis IFO 13111; experiment: as above; format: cell-based; conditions: IFO13111, dihydrochloride, Bacto-Antibiotic Medium 3 agar, inoculum a loopful of approx. 10^6 CFU/ml
Method: as §1, §2, §3, §4

[3] = tested on: Citrobacter freundii IFO 12681; experiment: as above; format: cell-based; conditions: IFO12681, dihydrochloride, Bacto-Antibiotic Medium 3 agar, inoculum a loopful of approx. 10^6 CFU/ml
Method: as §1, §2, §3, §4

[4] = tested on: Escherichia coli NIHJ JC2; experiment: as above; format: cell-based; conditions: NIHJJC2, dihydrochloride, Bacto-Antibiotic Medium 3 agar, inoculum a loopful of approx. 10^6 CFU/ml
Method: as §1, §2, §3, §4

[5] = tested on: Klebsiella pneumoniae IFO 3317; experiment: as above; format: cell-based; conditions: IFO3317, dihydrochloride, Bacto-Antibiotic Medium 3 agar, inoculum a loopful of approx. 10^6 CFU/ml
Method: as §1, §2, §3, §4

[6] = tested on: Proteus morganii IFO 3168; experiment: as above; format: cell-based; conditions: Morganella morganii, IFO3168; dihydrochloride; Bacto-Antibiotic Medium 3 agar; inoculum a loopful of approx. 10^6 CFU/ml
Method: as §1, §2, §3, §4

[7] = tested on: Proteus vulgaris IFO 3988; experiment: as above; format: cell-based; conditions: IFO3988, dihydrochloride, Bacto-Antibiotic Medium 3 agar, inoculum a loopful of approx. 10^6 CFU/ml
Method: as §1, §2, §3, §4

[8] = tested on: Pseudomonas aeruginosa IFO 3080; experiment: as above; format: cell-based; conditions: IFO3080, dihydrochloride, Bacto-Antibiotic Medium 3 agar, inoculum a loopful of approx. 10^6 CFU/ml
Method: as §1, §2, §3, §4

[9] = tested on: Staphylococcus aureus FDA 209P; experiment: as above; format: cell-based; conditions: FDA209P, dihydrochloride, Bacto-Antibiotic Medium 3 agar, inoculum a loopful of approx. 10^6 CFU/ml
Method: as §1, §2, §3, §4

Escherichia coli T7 [10] = experiment: Antibacterial spectrum, minimal inhibitory concentration, agar dilution (Table E); format: cell-based; conditions: dihydrochloride, medium TSA, inoculum a loopful of 10^8 CFU/ml
Description: as §1
(§5) (Note 1) Determined by the agar dilution method. Inoculum size was a
(§6) loopful of 10^8 CFU/ml.
(§7) (Note 2) TSA (Tripticase Soy Agar; Baltimore Biological Laboratories,
(§8) USA), B--TSA; 10% horse serum/TSA

[11] = tested on: Pseudomonas aeruginosa P9; experiment: as above; format: cell-based; conditions: dihydrochloride, medium B--TSA (10% horse serum/TSA), inoculum a loopful of 10^8 CFU/ml
Description: as §1, §5, §6, §7, §8

[12] = tested on: Staphylococcus aureus 308A-1; experiment: as above; format: cell-based; conditions: 308A1, dihydrochloride, medium TSA, inoculum a loopful of 10^8 CFU/ml
Description: as §1, §5, §6, §7, §8

[13] = tested on: Staphylococcus aureus FDA209P; experiment: as above; format: cell-based; conditions: dihydrochloride, medium B--TSA (10% horse serum/TSA), inoculum a loopful of 10^8 CFU/ml
Description: as §1, §5, §6, §7, §8

[14] = tested on: Streptococcus pyogenes E-14; experiment: as above; format: cell-based; conditions: E14, dihydrochloride, medium B--TSA (10% horse serum/TSA), inoculum a loopful of 10^8 CFU/ml
Description: as §1, §5, §6, §7, §8

Escherichia coli 0-111 = experiment: Therapeutic effect on infectious disease in mice (Table G); format: in vivo; conditions: Escherichia coli, 0111, sc, dihydrochloride, bacteria infected intraperitoneally, subcutaneous administration
[15] = tested on: Pseudomonas aeruginosa P-9; experiment: as above; format: in vivo; conditions: P9, sc, dihydrochloride, bacteria infected intraperitoneally, subcutaneous administration
[16] = tested on: Staphylococcus aureus 308A-1; experiment: as above; format: in vivo; conditions: bacteria infected intraperitoneally
[17] = Preliminary acute toxicities in mice (Table H); conditions: mouse, in vivo, dihydrochloride
pKa' value = format: physicochemical; conditions: dihydrochloride
Solubility = format: physicochemical
S. aureus 308A-1 [18] = experiment: Antibacterial activity against gram-positive bacteria, MIC (Table 3); format: cell-based; conditions: Staphylococcus aureus, 308A1; Tripticase Soy Agar; inoculum size 10^8 cfu/ml
Description: The antibacterial activities against gram-positive bacteria (S. aureus 308A-1) of some compounds of the invention are as shown in Table 3.
*Medium: Tripticase Soy Agar Inoculum size: 10^8 cfu/ml

S. aureus 308A-1 [19] = experiment: Antibacterial activity in mice, ED50 (Table 3); format: in vivo; conditions: Staphylococcus aureus, 308A1, sc, S.C.
Description: The antibacterial activities against gram-positive bacteria (S. aureus […]-1) of some compounds of the invention are as shown in Table 3. | **mice, S.C.,

Escherichia coli T7 [20] = experiment: Therapeutic effect on infectious disease in mice (Table G); format: in vivo; conditions: T7, sc, dihydrochloride, bacteria infected intraperitoneally, subcutaneous administration
[21] = 308A1, sc, dihydrochloride, subcutaneous administration

C/C=C\C=C\C(=O)NC(C)C(O)CC(N)CC(=O)NCCC(=N)N (stereo not shown) [II]
MIC [1]: 50 µg/mL (≈ 147 µM) | MIC [2]: 6.25 µg/mL (≈ 18.4 µM) | MIC [3]: ≥ 100 µg/mL | MIC [4]: > 100 µg/mL | MIC [5]: 100 µg/mL (≈ 295 µM) | MIC [6]: 100 µg/mL (≈ 295 µM) | MIC [7]: 25 µg/mL (≈ 73.7 µM) | MIC [8]: 50 µg/mL (≈ 147 µM) | MIC [9]: 12.5 µg/mL (≈ 36.8 µM) | MIC (Escherichia coli T7 [10]): 12.5 µg/mL (≈ 36.8 µM) | MIC [11]: 50 µg/mL (≈ 147 µM) | MIC [12]: 3.13 µg/mL (≈ 9.22 µM) | MIC [13]: 3.13 µg/mL (≈ 9.22 µM) | MIC [14]: 6.25 µg/mL (≈ 18.4 µM) | ED50 (Escherichia coli 0-111): 27.3 mg/kg | ED50 [15]: 61.4 mg/kg | ED50 ([16]; 308A1, dihydrochloride, oral administration): 16.2 mg/kg | ED50 [16, 21]: 0.351 mg/kg | LD50 ([17]; sc, subcutaneous): 400 to 800 mg/kg

C/C=C/C=C/C(=O)NCC(O)CC(N)CC(=O)NCCC(=N)N (stereo not shown) [III]
MIC [1]: > 100 µg/mL | MIC [2]: 12.5 µg/mL (≈ 38.4 µM) | MIC [3]: > 100 µg/mL | MIC [4]: > 100 µg/mL | MIC [5]: > 100 µg/mL | MIC [6]: > 100 µg/mL | MIC [7]: 100 µg/mL (≈ 307 µM) | MIC [8]: 50 µg/mL (≈ 154 µM) | MIC [9]: > 100 µg/mL | MIC (Escherichia coli T7 [10]): > 100 µg/mL | MIC [11]: 100 µg/mL (≈ 307 µM) | MIC [12]: > 100 µg/mL | MIC [13]: > 100 µg/mL | MIC [14]: 100 µg/mL (≈ 307 µM) | ED50 (Escherichia coli 0-111): 50 mg/kg | ED50 [16, 21]: 12.5 mg/kg

C/C=C\C=C\C(=O)NCC(O)CC(N)CC(=O)NCCC(=N)N (stereo not shown) [TAN-749A dihydrochloride]
pKa (pKa' value): 8 | Solubility: Soluble (Solubility; dihydrochloride): Water, Dimethyl sulfoxide, Methanol | Solubility: Sparingly soluble (Solubility; dihydrochloride): Acetone, Ethyl acetate, Diethyl ether

CN(CC(=O)O)NC(=O)C[C@H](N)C[C@@H](O)CN [Negamycin, 2-(3R,5R)-3,6-diamino-5-hydroxyhexanoyl-1-methylhydrazinoacetic acid, reference compound]
MIC (S. aureus 308A-1 [18]): > 100 µg/mL

C/C=C/C=C/C(=O)NC(C)C(O)CC(N)CC(=O)NCCC(=N)N (stereo not shown) [TAN-749D dihydrochloride]
Solubility (by reference to TAN-749A dihydrochloride) (Solubility): Same with TAN-749A dihydrochloride

C/C=C\C=C\C(=O)NC[C@H](O)C[C@@H](N)CC(=O)NCC(C)C(=N)N (stereo partly shown) [124b]
MIC (S. aureus 308A-1 [18]): > 100 µg/mL | ED50 (S. aureus 308A-1 [19]): 7.2 mg/kg

C/C=C/C=C/C(=O)NCC(O)CC(N)CC(=O)NCCC(=N)N (stereo not shown) [TAN-749C dihydrochloride]
Solubility (by reference to TAN-749A dihydrochloride) (Solubility): Same with TAN-749A dihydrochloride

C/C=C\C=C\C(=O)NC[C@H](O)C[C@H](CC(=O)NCCC(=N)N)NC(=O)C(N)CO (stereo partly shown) [134b]
MIC (S. aureus 308A-1 [18]): > 100 µg/mL | ED50 (S. aureus 308A-1 [19]): 7.79 mg/kg

C/C=C\C=C\C(=O)NC[C@H](O)C[C@H](CC(=O)NCCC(=N)N)NC(=O)[C@H](C)N [136b]
MIC (S. aureus 308A-1 [18]): > 100 µg/mL | ED50 (S. aureus 308A-1 [19]): 8.16 mg/kg

C/C=C\C=C\C(=O)NC(C)C(O)CC(N)CC(=O)NCCC(=N)N (stereo not shown) [TAN-749B dihydrochloride]
pKa (pKa' value): 8.05 | Solubility (by reference to TAN-749A dihydrochloride) (Solubility): Same with TAN-749A dihydrochloride

C/C=C\C=C(/C)C(=O)NC[C@H](O)C[C@@H](N)CC(=O)NCCC(=N)N [101b]
MIC (S. aureus 308A-1 [18]): > 100 µg/mL | ED50 (S. aureus 308A-1 [19]): 7.02 mg/kg

CC=CC=C(C)C(=O)NCC(O)CC(N)CC(=O)NCCC(=N)N (stereo not shown) [44b]
MIC (S. aureus 308A-1 [18]): 100 µg/mL (≈ 295 µM) | ED50 (S. aureus 308A-1 [19]): 21.5 mg/kg

C/C=C\C=C\C(=O)NCC(O)CC(CC(=O)NCCC(=N)N)NCC (stereo not shown) [compound 82]
MIC (S. aureus 308A-1 [18]): > 100 µg/mL | ED50 (S. aureus 308A-1 [19]): 25 mg/kg

C/C=C/C=C/C(=O)NC(C)C(O)CC(N)CC(=O)NCCC(=N)N (stereo not shown) [IV]
MIC [1]: > 100 µg/mL | MIC [2]: 6.25 µg/mL (≈ 18.4 µM) | MIC [3]: > 100 µg/mL | MIC [4]: > 100 µg/mL | MIC [5]: > 100 µg/mL | MIC [6]: > 100 µg/mL | MIC [7]: 100 µg/mL (≈ 295 µM) | MIC [8]: 100 µg/mL (≈ 295 µM) | MIC [9]: 50 µg/mL (≈ 147 µM) | MIC (Escherichia coli T7 [10]): 50 µg/mL (≈ 147 µM) | MIC [11]: 100 µg/mL (≈ 295 µM) | MIC [12]: 25 µg/mL (≈ 73.7 µM) | MIC [13]: 25 µg/mL (≈ 73.7 µM) | MIC [14]: 25 µg/mL (≈ 73.7 µM) | ED50 [16, 21]: < 6.25 mg/kg

C=C/C=C(\C)C(=O)NC[C@H](O)C[C@@H](N)CC(=O)NCCC(=N)N [112b]
MIC (S. aureus 308A-1 [18]): > 100 µg/mL | ED50 (S. aureus 308A-1 [19]): 6.25 mg/kg

C/C=C\C=C\C(=O)NCC(O)CC(CC(=O)NCCC(=N)N)NC (stereo not shown) [compound 80]
MIC (S. aureus 308A-1 [18]): > 100 µg/mL

C/C=C\C=C\C(=O)NC[C@H](O)C[C@@H](N)CC(=O)NCCC(=N)NC [125b]
MIC (S. aureus 308A-1 [18]): > 100 µg/mL | ED50 (S. aureus 308A-1 [19]): 19.2 mg/kg

N=C(N)CCNC(=O)C[C@H](N)C[C@@H](O)CNC(=O)/C=C/C=C\Cl [120b]
MIC (S. aureus 308A-1 [18]): > 100 µg/mL | ED50 (S. aureus 308A-1 [19]): 8.61 mg/kg

C/C=C\C=C\C(=O)NC[C@H](O)C[C@H](CC(=O)NCCC(=N)N)NC(=O)CN [133b]
MIC (S. aureus 308A-1 [18]): > 100 µg/mL | ED50 (S. aureus 308A-1 [19]): 8.41 mg/kg

C/C=C\C=C\C(=O)NCC(O)CC(N)CC(=O)NCCC(=N)N (stereo not shown) [I]
MIC [1]: 25 µg/mL (≈ 76.8 µM) | MIC [2]: 3.13 µg/mL (≈ 9.62 µM) | MIC [3]: ≥ 100 µg/mL | MIC [4]: > 100 µg/mL | MIC [5]: > 100 µg/mL | MIC [6]: > 100 µg/mL | MIC [7]: 100 µg/mL (≈ 307 µM) | MIC [9]: 50 µg/mL (≈ 154 µM) | MIC (Escherichia coli T7 [10]): 50 µg/mL (≈ 154 µM) | MIC [11]: 100 µg/mL (≈ 307 µM) | MIC [12]: 12.5 µg/mL (≈ 38.4 µM) | MIC [13]: 12.5 µg/mL (≈ 38.4 µM) | MIC [14]: 3.13 µg/mL (≈ 9.62 µM) | ED50 (Escherichia coli 0-111): 67.2 mg/kg | ED50 (Escherichia coli T7 [20]): 50.8 mg/kg | ED50 [16, 21]: 1.31 mg/kg | LD50 ([17]; oral): 2000 to 4000 mg/kg | LD50 ([17]; sc, subcutaneous): ~500 mg/kg
